# Reference: patent US6380251B1, “Cyclopentane heptan(ene)oic acid, 2-thiocarbamoyloxy and 2-carbamoyloxy compounds as therapeutic agents” (Allergan Sales, Inc., priority 2000, dated 2002)
# Test system: PGF2α-sensitive receptor provisionally termed FPVASC
# Assay: relaxation of smooth muscle of isolated rabbit jugular vein
# Type: cell-based
# Conditions: not given
# Protocol: Activity at different prostanoid receptors was measured in vitro in isolated smooth muscle preparations. FP-activity was measured as contraction of the isolated feline iris sphincter. Activity was also measured as relaxation of smooth muscle of isolated rabbit jugular vein a preparation which appears to contain a unique PGF2α-sensitive receptor provisionally termed FPVASC. TP-vasoconstrictor activity was measured as contraction of rings of the isolated rat thoracic aorta.
# Many examples also have pronounced activity at the FP receptor, provisionally termed FP associated with the vascular endothelium in the rabbit jugular vein preparation. Since such agents would be vasodilators they have potential in hypertension and any disease where tissue blood perfusion is compromised. Such indications include, but are not limited to, systemic hypertension, angina, stroke, retinal vascular diseases, claudication, Raynauds disease, diabetes, and pulmonary hypertension.
row,Compound,EC50
1,"O=C(O)CCC/C=C\C[C@H]1C(O)CC(O)[C@@H]1COC(=O)NCc1ccccc1 (stereo in doubt) [Example 6, 7-[2-Benzylcarbamoyloxymethyl-3,5-dihydroxycyclopentyl]hept-5-enoic acid]",14.2 µM
2,"O=C(O)CCC/C=C\C[C@H]1C(O)CC(O)[C@@H]1COC(=S)NCc1ccccc1 (stereo in doubt) [Example 9, 7-[2-Benzylthiocarbamoyloxymethyl-3,5-dihydroxycyclopentyl]hept-5-enoic acid]",0.427 µM
3,"O=C(O)CCC/C=C\C[C@H]1C(O)CC(O)[C@@H]1COC(=O)Nc1ccccc1 (stereo partly drawn) [Example 3, (Z)-7-((1R,2S,3R,5S)-3,5-Dihydroxy-2-phenzylcarbamoyloxymethylcyclopentyl)-hept-5-enoic acid]",193 µM
4,"O=C(O)CCC/C=C\C[C@@H]1[C@@H](COC(=O)NCCc2cccs2)[C@H](O)C[C@@H]1O [Example 10, (Z)-7-[(1R,2S,3R,5S)-3,5-Dihydroxy-2-(2-thiophen-2-ylethylcarbamoyloxymethyl)-cyclopentyl]hept-5-enoic acid]",32 µM
5,"CCCCNC(=S)OC[C@@H]1[C@@H](C/C=C\CCCC(=O)O)[C@@H](O)C[C@H]1O [Example 11, (Z)-7-((1R,2S,3R,5S)-2-Butylthiocarbamoyloxymethyl-3,5-dihydroxycyclopentyl)-hept-5-enoic acid]",0.171 µM
6,"O=C(O)CCC/C=C\C[C@@H]1[C@@H](COC(=S)NCc2cccc(Cl)c2)[C@H](O)C[C@@H]1O [Example 12, (Z)-7-[(1R,2S,3R,5S)-2-(3-Chlorobenzylthiocarbamoyloxymethyl)-3,5-dihydroxycyclopentyl]hept-5-enoic acid]",0.003 µM
7,"O=C(O)CCC/C=C\C[C@@H]1[C@@H](COC(=O)NCc2cccc(C(F)(F)F)c2)[C@H](O)C[C@@H]1O [Example 13, (Z)-7-[(1R,2S,3R,5S)-3,5-Dihydroxy-2-(3-trifluoromethylbenzylcarbamoyloxymethyl)cyclopentyl]hept-5-enoic acid]",2.83 µM

# The next lines start with the values.
row,EC50,Compound
1,0.178 µM,"O=C(O)CCC/C=C\C[C@@H]1[C@@H](COC(=S)NCc2cccc(C(F)(F)F)c2)[C@H](O)C[C@@H]1O [Example 14, (Z)-7-[(1R,2S,3R,5S)-3,5-Dihydroxy-2-(3-trifluoromethylbenzylthiocarbamoyloxymethyl)cyclopentyl]hept-5-enoic acid]"
2,11 µM,"O=C(CCC/C=C\C[C@@H]1[C@@H](COC(=S)NCc2cccc(Cl)c2)[C@H](O)C[C@@H]1O)NCCO [Example 18, (3-Chlorobenzyl)thiocarbamic acid O-{(1S,2R,3S,5R)-3,5-dihydroxy-2-[(Z)-6-(2-hydroxyethylcarbamoyl)hex-2-enyl]cyclopentylmethyl}ester]"
3,2.91 µM,"CCNC(=O)CCC/C=C\C[C@@H]1[C@@H](COC(=S)NCc2cccc(Cl)c2)[C@H](O)C[C@@H]1O [Example 19, (3-Chlorobenzyl)thiocarbamic acid O-[(1S,2R,3S,5R)-2-((Z)-6-ethylcarbamoylhex-2-enyl)-3,5-dihydroxycyclopentylmethyl]ester]"
4,0.274 µM,"NC(=O)CCC/C=C\C[C@@H]1[C@@H](COC(=S)NCc2cccc(Cl)c2)[C@H](O)C[C@@H]1O [Example 20, (3-Chlorobenzyl)thiocarbamic acid O-[(1S,2R,3S,5R)-2-((Z)-6-carbamoylhex-2-enyl)-3,5-dihydroxycyclopentylmethyl]ester]"

# Test system: Dog intraocular pressure
# Assay: Dog intraocular pressure by applanation pneumatonometry
# Type: in vivo
# Conditions: dogs, 25 μl to the ocular surface, contralateral eye vehicle, measured before and at 6 hours; FIGS. 3 and 4
# Protocol: The compounds were prepared at the said concentrations in a vehicle comprising 0.1% polysorbate 80 and 10 mM TRIS base. Dogs were treated by administering 25 μl to the ocular surface, the contralateral eye received vehicle as a control. Intraocular pressure was measured by applanation pneumatonometry. Dog intraocular pressure was measured immediately before drug administration and at 6 hours thereafter.
row,Compound,effect on intraocular pressure
1,"O=C(O)CCC/C=C\C[C@H]1C(O)CC(O)[C@@H]1COC(=S)NCc1ccccc1 (stereo in doubt) [Example 9, 7-[2-Benzylthiocarbamoyloxymethyl-3,5-dihydroxycyclopentyl]hept-5-enoic acid]",lowered intraocular pressure
2,"O=C(O)CCC/C=C\C[C@@H]1[C@@H](COC(=S)NCc2cccc(Cl)c2)[C@H](O)C[C@@H]1O [Example 12, (Z)-7-[(1R,2S,3R,5S)-2-(3-Chlorobenzylthiocarbamoyloxymethyl)-3,5-dihydroxycyclopentyl]hept-5-enoic acid]",lowered intraocular pressure
